In ChEMBL document CHEMBL1125524, “Adenosine A1 antagonists. 2. Structure-activity relationships on diuretic activities and protective effects against acute renal failure” (J Med Chem, 1992):
pKi: −log10 of the molar value.

How the values were obtained:
Rattus norvegicus [1] = assay: Ratio of urinary excretion value (urinary volume) in treated rats to that in control rats, at a peroral dose of 0.1 mg/Kg; type: functional, Urine
Rattus norvegicus [2] = assay: Ratio of urinary excretion value (Na+ concentration) in treated rats to that in control rats, at a peroral dose of 0.1 mg/Kg; type: functional, Urine
Rattus norvegicus [3] = assay: Ratio of urinary excretion value (Na+ concentration) in treated rats to that in control rats, at a peroral dose of 25 mg/Kg; type: functional, Urine
Rattus norvegicus [4] = assay: Effect on urinary excretion potassium and sodium after oral administration of 0.4 mg/kg to rats(potassium and sodium excretion in control rat is 0.132+/-0.010); type: functional, Urine
Rattus norvegicus [5] = assay: Ratio of sodium ion/potassium ion concentration in treated rats to that in control rats, at a peroral dose of 0.1 mg/Kg; type: functional
Rattus norvegicus [6] = assay: Ratio of urinary excretion value (Na+ concentration) in treated rats to that in control rats, at a peroral dose of 6.25 mg/Kg; type: functional, Urine
Rattus norvegicus [7] = assay: Ratio of sodium ion/potassium ion concentration in treated rats to that in control rats, at a peroral dose of 1.6 mg/Kg; type: functional
Rattus norvegicus [8] = assay: Ratio of sodium ion/potassium ion concentration in treated rats to that in control rats, at a peroral dose of 25 mg/Kg; type: functional
Rattus norvegicus [9] = assay: Urea nitrogen concentration measured after intraperitoneal administration of 1 mg/kg of compound to rats(vehicle 182.5+/-3.4); type: functional
Rattus norvegicus [10] = assay: Oral diuretic activity was measured after oral administration of 25 mg/kg to rats(control volume is 1.00+/-0.13); type: functional, Urine
Rattus norvegicus [11] = assay: Oral diuretic activity was measured after oral administration of 0.4 mg/kg to rats(control volume is 0.83+/-0.08); type: functional, Urine
Rattus norvegicus [12] = assay: Percent inhibition of Urea nitrogen by the compound given as ratio of UN value in treated to vehicle treated ones after intraperitoneal administration of 1 mg/kg of compound to rats(vehicle 182.5+/-3.4); type: functional; conditions: ip
Rattus norvegicus [13] = assay: Ratio of urinary excretion value (urinary volume) in treated rats to that in control rats, at a peroral dose of 25 mg/Kg; type: functional, Urine
Rattus norvegicus [14] = assay: Ratio of urinary excretion value (urinary volume) in treated rats to that in control rats, at a peroral dose of 1.6 mg/Kg; type: functional, Urine
Rattus norvegicus [15] = assay: Serum creatinine concentration measured after intraperitoneal administration of 1 mg/kg of compound to rats(vehicle 5.43+/-0.11); type: functional
Rattus norvegicus [16] = assay: Ratio of urinary excretion value (Na+ concentration) in treated rats to that in control rats, at a peroral dose of 0.4 mg/Kg; type: functional, Urine
Rattus norvegicus [17] = assay: Ratio of urinary excretion value (Na+ concentration) in treated rats to that in control rats, at a peroral dose of 1.6 mg/Kg; type: functional, Urine
Rattus norvegicus [18] = assay: Effect on urinary excretion potassium and sodium after oral administration of 0.1 mg/kg to rats(potassium and sodium excretion in control rat is 0.169+/-0.018); type: functional, Urine
Rattus norvegicus [19] = assay: Oral diuretic activity was measured after oral administration of 0.1 mg/kg to rats(control volume is 1.10+/-0.09); type: functional, Urine
Rattus norvegicus [20] = assay: Oral diuretic activity was measured after oral administration of 1.6 mg/kg to rats(control volume is 0.91+/-0.08); type: functional, Urine
Rattus norvegicus [21] = assay: Ratio of urinary excretion value (urinary volume) in treated rats to that in control rats, at a peroral dose of 0.4 mg/Kg; type: functional, Urine
Rattus norvegicus [22] = assay: Effect on urinary excretion potassium and sodium after oral administration of 25 mg/kg to rats(potassium and sodium excretion in control rat is 0.129+/-0.026); type: functional, Urine
Rattus norvegicus [23] = assay: Effect on urinary excretion potassium and sodium after oral administration of 1.6 mg/kg to rats(potassium and sodium excretion in control rat is 0.193+/-0.016); type: functional, Urine
Rattus norvegicus [24] = assay: Ratio of urinary excretion value (urinary volume) in treated rats to that in control rats, at a peroral dose of 6.25 mg/Kg; type: functional, Urine
Rattus norvegicus [25] = assay: Ratio of sodium ion/potassium ion concentration in treated rats to that in control rats, at a peroral dose of 0.4 mg/Kg; type: functional
Rattus norvegicus [26] = assay: Percent inhibition of serum creatinine by the compound given as ratio of Cr value in treated to vehicle treated ones after intraperitoneal administration of 1 mg/kg of compound to rats(vehicle 5.43+/-0.11); type: functional; conditions: ip
Rattus norvegicus [27] = assay: Percent inhibition of Urea nitrogen by the compound given as ratio of UN value in treated to vehicle treated ones after intraperitoneal administration of 0.1 mg/kg of compound to rats(vehicle 171.3+/-6.4); type: functional; conditions: ip
Adenosine receptor A1 = target: T1, Adenosine receptor A1 (Cavia porcellus, UniProt P47745)
T1 sequence (P47745 whole entry): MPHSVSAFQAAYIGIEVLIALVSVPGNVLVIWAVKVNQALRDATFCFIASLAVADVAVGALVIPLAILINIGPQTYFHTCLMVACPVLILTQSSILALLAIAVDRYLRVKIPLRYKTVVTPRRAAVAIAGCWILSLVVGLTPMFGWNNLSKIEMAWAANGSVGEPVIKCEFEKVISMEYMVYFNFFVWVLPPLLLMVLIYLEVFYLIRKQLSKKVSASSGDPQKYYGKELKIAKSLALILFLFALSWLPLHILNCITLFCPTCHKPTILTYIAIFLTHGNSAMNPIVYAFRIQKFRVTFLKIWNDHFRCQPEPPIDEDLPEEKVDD
Description: Binding affinity against adenosine A1 receptor in guinea pig forebrain membranes using N6-[3H]cyclohexyladenosine as radioligand

Rattus norvegicus [28] = assay: Urea nitrogen concentration measured after intraperitoneal administration of 1 mg/kg of compound to rats(vehicle 138.8+/-7.8); type: functional
Rattus norvegicus [29] = assay: Serum creatinine concentration measured after intraperitoneal administration of 1 mg/kg of compound to rats(vehicle 4.74+/-0.31); type: functional
Rattus norvegicus [30] = assay: Percent inhibition of Urea nitrogen by the compound given as ratio of UN value in treated to vehicle treated ones after intraperitoneal administration of 1 mg/kg of compound to rats(vehicle 138.8+/-7.8); type: functional; conditions: ip
Rattus norvegicus [31] = assay: Effect on urinary excretion potassium and sodium after oral administration of 1.6 mg/kg to rats(potassium and sodium excretion in control rat is 0.174+/-0.013); type: functional, Urine
Rattus norvegicus [32] = assay: Percent inhibition of serum creatinine by the compound given as ratio of Cr value in treated to vehicle treated ones after intraperitoneal administration of 1 mg/kg of compound to rats(vehicle 4.74+/-0.31); type: functional; conditions: ip
Rattus norvegicus [33] = assay: Serum creatinine concentration measured after intraperitoneal administration of 0.1 mg/kg of compound to rats(vehicle 6.90+/-0.2); type: functional
Rattus norvegicus [34] = assay: Percent inhibition of serum creatinine by the compound given as ratio of Cr value in treated to vehicle treated ones after intraperitoneal administration of 0.1 mg/kg of compound to rats(vehicle 6.90+/-0.2); type: functional; conditions: ip
Rattus norvegicus [35] = assay: Oral diuretic activity was measured after oral administration of 1.6 mg/kg to rats(control volume is 0.86+/-0.09); type: functional, Urine
Rattus norvegicus [36] = assay: Urea nitrogen concentration measured after intraperitoneal administration of 0.1 mg/kg of compound to rats(vehicle 171.3+/-6.4); type: functional

CCCn1c(=O)c2[nH]c(C3CCCC3)nc2n(CCC)c1=O [1,3-DIPROPYL-8-CYCLOPENTYLXANTHINE [DPCPX]]
T/C (Rattus norvegicus [1]): 1.24 | T/C (Rattus norvegicus [2]): 1.27 | T/C (Rattus norvegicus [3]): 2.46 | Na (Rattus norvegicus [4]): 0.302 m equiv 6hr-1 100g-1 | Na+/K+ (Rattus norvegicus [5]): 1.54 | T/C (Rattus norvegicus [6]): 1.98 | Na+/K+ (Rattus norvegicus [7]): 1.57 | Na+/K+ (Rattus norvegicus [8]): 1.27 | UN (Rattus norvegicus [9]): 131.7 mg/dL | Urine volume (Rattus norvegicus [10]): 1.93 ml 6hr-1 100g-1 | Urine volume (Rattus norvegicus [11]): 2.05 ml 6hr-1 100g-1 | inhibition in vivo at 1 mg/kg (Rattus norvegicus [12]): 27% | T/C (Rattus norvegicus [13]): 1.93 | T/C (Rattus norvegicus [14]): 2.79 | Cr (Rattus norvegicus [15]): 3.75 mg/dL | T/C (Rattus norvegicus [16]): 2.28 | T/C (Rattus norvegicus [17]): 2.33 | Na (Rattus norvegicus [18]): 0.215 m equiv 6hr-1 100g-1 | Urine volume (Rattus norvegicus [19]): 1.36 ml 6hr-1 100g-1 | Urine volume (Rattus norvegicus [20]): 2.54 ml 6hr-1 100g-1 | T/C (Rattus norvegicus [21]): 2.47 | Na (Rattus norvegicus [22]): 0.316 m equiv 6hr-1 100g-1 | Na (Rattus norvegicus [23]): 0.449 m equiv 6hr-1 100g-1 | T/C (Rattus norvegicus [24]): 1.87 | Na+/K+ (Rattus norvegicus [25]): 1.76 | inhibition in vivo at 1 mg/kg (Rattus norvegicus [26]): 31%

Cn1c(=O)c2nc(C3CCCC3)[nH]c2n(C)c1=O [8-CYCLOPENTYLTHEOPHYLLINE]
inhibition in vivo at 0.1 mg/kg (Rattus norvegicus [27]): 1% | pKi (Adenosine receptor A1): 7.02 | T/C (Rattus norvegicus [6]): 1.82 | UN (Rattus norvegicus [28]): 63.6 mg/dL | Na+/K+ (Rattus norvegicus [7]): 1.12 | Cr (Rattus norvegicus [29]): 2.22 mg/dL | inhibition in vivo at 1 mg/kg (Rattus norvegicus [30]): 54% | Na (Rattus norvegicus [31]): 0.217 m equiv 6hr-1 100g-1 | inhibition in vivo at 1 mg/kg (Rattus norvegicus [32]): 53% | Cr (Rattus norvegicus [33]): 7.26 mg/dL | T/C (Rattus norvegicus [14]): 1.23 | inhibition in vivo at 0.1 mg/kg (Rattus norvegicus [34]): -5% | T/C (Rattus norvegicus [17]): 1.25 | Urine volume (Rattus norvegicus [35]): 1.06 ml 6hr-1 100g-1 | T/C (Rattus norvegicus [24]): 1.64 | UN (Rattus norvegicus [36]): 168.7 mg/dL
